Measurements as given in BindingDB's records for doi:10.1016/s0960-894x(99)00632-0 (3-Dimensional Pharmaceuticals, 2000).

Assay: Compound was evaluated for the inhibitory constant against human Serine protease chymotrypsin

Ki: 88 µM
SMILES: Cc1cc(OCCC=NNC(=N)N)cc(OS(=O)(=O)c2ccccc2OC(F)(F)F)c1 [3-[((3E)-3-{[(E)-amino(imino)methyl]hydrazono}propyl)oxy]-5-methylphenyl 2-(trifluoromethoxy)benzenesulfonate]
